From US10221163B2 (priority 2015, dated 2019)

How the values were obtained:
[1] = target: NDM-1 (Klebsiella pneumoniae, UniProt C7C422); assay: biochemical; assay type: biochemical; details: fluorescence assay, CCF2-FA substrate, 1 pM enzyme, 2 hours at 25° C.; read-out: NDM-1 IC50
Description: (§1) Enzyme Activity: Determination of IC50
(§2) The Class B enzyme activities were measured in the presence of the test inhibitor in a fluorescence assay against a commercially available substrate consisting of a cephalosporin core linking 7-hydroxycoumarin to fluorescein (CCF2-FA). […] In a 384-well microplate, the test inhibitor was incubated with the metallo-β-lactamase enzyme and the substrate for 2 hours at 25° C. […] The IC50 value was determined from semi-logarithmic plots of enzyme inhibition versus inhibitor concentration, with a curve generated using a 4-parameter fit.

[2] = tested on: Pseudomonas aeruginosa efflux+ (MB9798), IMP-1; assay type: cell-based; set-up: Concentration of metallo-β-lactamase inhibitor which restores susceptibility of efflux + (MB9798) strain to imipenem: unit not given here; details: C, D serine β-lactamase inhibitor closely related to relebactam; for P. aeruginosa expressing IMP-1, efflux + (MB9798) MITC95: concentration restoring susceptibility to imipenem at 2 μg/mL in the presence of a class A; for Concentration of metallo-β-lactamase inhibitor which restores susceptibility of efflux + (MB9798) strain to imipenem: imipenem at 2 μg/mL, in the presence of a class A
Source text: (§3) The strain background was Pseudomonas aeruginosa PAO1.
(§4) The strain set was then used as a pair to determine the effect of metallo-β-lactamase inhibitors of Formula I on the MIC of imipenem and/or ceftazidime. A fixed concentration of antibiotic was included in standard microbroth MIC tests, usually at the CLSI (Clinical and Laboratory Standards Institute) breakpoint concentration. A fixed amount of a class A/C beta-lactamase inhibitor was also included to inhibit the resident Pseudomonas AmpC enzyme. A serial titration of the metallo-β-lactamase inhibitor was included and the concentration of metallo-β-lactamase inhibitor which restores susceptibility of the strain to the included antibiotic was recorded. That concentration of metallo-β-lactamase inhibitor was then compared between the two strains to determine the fold difference between the efflux+ (MB9798) and efflux− (MB9799) strains. This was taken as an indication of the extent to which the MBLi is subject to efflux.

[3] = target: VIM-1 (Pseudomonas aeruginosa (strain ATCC 15692 / DSM 22644 / CIP 104116 / JCM 14847 / LMG 12228 / 1C / PRS 101 / PAO1), UniProt A0A0F7KYQ8); assay: biochemical; details: VIM-1 IC50, fluorescence assay, CCF2-FA substrate, 30 pM enzyme, 2 hours at 25° C.
Description: as §1, §2

[4] = tested on: Pseudomonas aeruginosa efflux− (MB9799), IMP-1; assay type: cell-based; details: C, D serine β-lactamase inhibitor closely related to relebactam; for P. aeruginosa expressing IMP-1, efflux − (MB9799) MITC95: concentration restoring susceptibility to imipenem at 2 μg/mL in the presence of a class A; for Concentration of metallo-β-lactamase inhibitor which restores susceptibility of efflux − (MB9799) strain to imipenem: imipenem at 2 μg/mL, in the presence of a class A
Source text: as §3, §4

[5] = tested on: Klebsiella pneumoniae expressing VIM-1 (IHMA599644); assay type: cell-based; details: for Klebsiella pneumoniae MITC95: VIM-1 strain IHMA599644, with imipenem 1 μg/ml, 95% inhibition of growth
Description: (§5) Antibiotic Potentiation Activity: Determination of Synergistic Concentration
(§6) The bacterial strains tested included the clinical strains Escherichia coli expressing NDM-1 (CLB30005, CLB30016), Serratia marcescens expressing IMP-1 (CL5741), and Klebsiella pneumoniae expressing VIM-1 (IHMA599644). Inhibitor activity was measured in the presence and absence of imipenem in a 384-well microplate.
(§7) The clinical strains CLB30016, CL5741 and IHMA599644 were grown on trypticase soy agar containing 5% sheep's blood. The bacteria on agar plates were incubated at 35° C. with humidity overnight. The following day, individual colonies from each clinical strain were picked and resuspended in 5 ml saline to attain an OD600 of […], for CLB30016, CL5741 and IHMA599644, respectively. These were further diluted 1:100 into 1.1×CAMHB and used to inoculate the test wells as described below.
(§8) Imipenem in 10 mM 3-(N-morpholino)propanesulfonic acid (MOPS, pH 7) was stored in single use aliquots at −80° C. […] On the day of the assay, 4 μl of antibiotic was added to 45 ul of bacteria followed by 1 μl of test compound and mixed by pipetting and with an orbital shaker. The concentration of antibiotic used in the assay was 1 μg/ml. Microplates were covered and incubated at 35° C. for 22 hours to 24 hours. At the end of the incubation, absorbance was determined using a spectrophotometer.

[6] = tested on: Escherichia coli expressing NDM-1 (CLB30005, CLB30016); assay type: cell-based; details: with imipenem 1 μg/ml; for Escherichia coli MITC95: NDM-1 strain, 95% inhibition of growth
Description: as §5, §6, §7, §8

[7] = tested on: Serratia marcescens expressing IMP-1 (CL5741); assay type: cell-based; details: for Serratia marcescens MITC95: IMP-1 strain CL5741, with imipenem 1 μg/ml, 95% inhibition of growth
Description: as §5, §6, §7, §8

[8] = target: IMP-1 (Serratia marcescens, UniProt P52699); assay: biochemical; assay type: biochemical; details: fluorescence assay, CCF2-FA substrate, 2 pM enzyme, 2 hours at 25° C.; read-out: IMP-1 IC50
Description: as §1, §2

[9] = with imipenem 1 μg/ml, 95% inhibition of bacterial growth

Chain of IMP-1 (P52699 whole entry, looked up, species assumed): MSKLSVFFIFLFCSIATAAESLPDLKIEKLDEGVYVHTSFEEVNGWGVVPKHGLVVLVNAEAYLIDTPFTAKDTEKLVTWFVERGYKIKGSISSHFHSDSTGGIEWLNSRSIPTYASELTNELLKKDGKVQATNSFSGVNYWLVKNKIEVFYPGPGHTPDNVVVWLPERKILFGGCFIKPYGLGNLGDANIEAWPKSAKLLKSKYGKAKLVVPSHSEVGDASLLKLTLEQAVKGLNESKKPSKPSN
Chain of NDM-1 (C7C422 whole entry, looked up, species assumed): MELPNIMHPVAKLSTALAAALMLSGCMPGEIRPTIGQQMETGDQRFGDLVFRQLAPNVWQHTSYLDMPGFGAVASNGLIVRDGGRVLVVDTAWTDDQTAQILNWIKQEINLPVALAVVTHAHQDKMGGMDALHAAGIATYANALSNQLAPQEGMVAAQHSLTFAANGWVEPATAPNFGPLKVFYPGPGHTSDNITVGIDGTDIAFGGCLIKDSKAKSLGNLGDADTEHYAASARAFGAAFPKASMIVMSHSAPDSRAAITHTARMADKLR

Nc1nc2c(-c3ccc(S(=O)(=O)N[C@H]4C[C@H](N)C4)c(S(N)(=O)=O)c3-c3nnn[nH]3)cccc2s1.O=C(O)C(F)(F)F [Example 98, (1r,3r)-3-(4-(2-aminobenzo[d]thiazol-4-yl)-2-sulfamoyl-3-(1H-tetrazol-5-yl)phenylsulfonamido)cyclobutanaminium 2,2,2-trifluoroacetate]
IC50 [1]: 0.0365 nM | P. aeruginosa expressing IMP-1, efflux + (MB9798) MITC95 [2]: 0.7813 µM | IC50 [3]: 0.169 nM | P. aeruginosa expressing IMP-1, efflux − (MB9799) MITC95 [4]: 1.042 µM | Klebsiella pneumoniae expressing VIM-1 (IHMA599644) MITC95 [5, 9]: 2.604 µM | Escherichia coli expressing NDM-1 (CLB30016) MITC95 ([6]; 95% inhibition of bacterial growth): 1.823 µM | Serratia marcescens expressing IMP-1 (CL5741) MITC95 [7, 9]: 1.563 µM

NCCNS(=O)(=O)c1ccc(-c2cccc3ncccc23)c(-c2nn[nH]n2)c1S(N)(=O)=O [Example 360, N1-(2-aminoethyl)-4-(quinolin-5-yl)-3-(2H-tetrazol-5-yl)benzene-1,2-disulfonamide]
P. aeruginosa expressing IMP-1, efflux + (MB9798) MITC95 [2]: 1.563 µM | IC50 [3]: 0.135 nM | P. aeruginosa expressing IMP-1, efflux − (MB9799) MITC95 [4]: 1.563 µM | Klebsiella pneumoniae MITC95 [5]: 3.125 µM | Escherichia coli MITC95 [6]: 1.563 µM | Serratia marcescens MITC95 [7]: 1.563 µM

C[C@@H](CN)NS(=O)(=O)c1ccc(-c2cc(F)cc3[nH]c(N)nc23)c(-c2nn[nH]n2)c1S(N)(=O)=O [Example 397]
IC50 [1]: 0.161 nM | IC50 [8]: 1.6 nM | Concentration of metallo-β-lactamase inhibitor which restores susceptibility of efflux + (MB9798) strain to imipenem [2]: 1.563 | Concentration of metallo-β-lactamase inhibitor which restores susceptibility of efflux − (MB9799) strain to imipenem [4]: 1.563 | Klebsiella pneumoniae MITC95 [5]: 3.125 µM | Escherichia coli MITC95 [6]: 3.125 µM | Serratia marcescens MITC95 [7]: 0.7813 µM

Nc1nc2c(-c3ccc(S(=O)(=O)N[C@H]4CCNC4)c(S(N)(=O)=O)c3-c3nn[nH]n3)cc(F)cc2[nH]1 [Example 399]
IC50 [1]: 0.0822 nM | IC50 [8]: 0.533 nM | Concentration of metallo-β-lactamase inhibitor which restores susceptibility of efflux + (MB9798) strain to imipenem [2]: 0.7813 | Concentration of metallo-β-lactamase inhibitor which restores susceptibility of efflux − (MB9799) strain to imipenem [4]: 0.7813 | Klebsiella pneumoniae MITC95 [5]: 1.563 µM | Escherichia coli MITC95 [6]: 0.7813 µM | Serratia marcescens MITC95 [7]: 1.563 µM

NC[C@@H](O)CNS(=O)(=O)c1ccc(-c2ccnc(N)c2)c(-c2nn[nH]n2)c1S(N)(=O)=O [Example 419]
IC50 [1]: 0.496 nM | IC50 [8]: 1.51 nM | Concentration of metallo-β-lactamase inhibitor which restores susceptibility of efflux + (MB9798) strain to imipenem [2]: 1.563 | Concentration of metallo-β-lactamase inhibitor which restores susceptibility of efflux − (MB9799) strain to imipenem [4]: 0.7813 | Klebsiella pneumoniae MITC95 [5]: 1.563 µM | Escherichia coli MITC95 [6]: 0.1953 µM | Serratia marcescens MITC95 [7]: 0.7813 µM

C[C@H](N)CNS(=O)(=O)c1ccc(-c2ccnc(N)c2)c(-c2nn[nH]n2)c1S(N)(=O)=O [Example 421]
IC50 [1]: 0.196 nM | IC50 [8]: 1.14 nM | Concentration of metallo-β-lactamase inhibitor which restores susceptibility of efflux + (MB9798) strain to imipenem [2]: 1.563 | Concentration of metallo-β-lactamase inhibitor which restores susceptibility of efflux − (MB9799) strain to imipenem [4]: 0.7813 | Klebsiella pneumoniae MITC95 [5]: 1.563 µM | Escherichia coli MITC95 [6]: 0.3906 µM | Serratia marcescens MITC95 [7]: 0.7813 µM

C[C@@H](N)CNS(=O)(=O)c1ccc(-c2ccnc(N)c2)c(-c2nn[nH]n2)c1S(N)(=O)=O [Example 422]
IC50 [1]: 0.386 nM | IC50 [8]: 0.982 nM | Concentration of metallo-β-lactamase inhibitor which restores susceptibility of efflux + (MB9798) strain to imipenem [2]: 1.563 | Concentration of metallo-β-lactamase inhibitor which restores susceptibility of efflux − (MB9799) strain to imipenem [4]: 0.7813 | Klebsiella pneumoniae MITC95 [5]: 1.563 µM | Escherichia coli MITC95 [6]: 0.3906 µM | Serratia marcescens MITC95 [7]: 0.7813 µM

CCOC(=O)c1sc(N)nc1-c1cccc(-c2ccc(S(=O)(=O)NC(CN)CN)c(S(N)(=O)=O)c2-c2nnn[nH]2)c1 [Example 431]
IC50 [1]: 0.0739 nM | IC50 [8]: 0.133 nM | Concentration of metallo-β-lactamase inhibitor which restores susceptibility of efflux + (MB9798) strain to imipenem [2]: 12.5 | Concentration of metallo-β-lactamase inhibitor which restores susceptibility of efflux − (MB9799) strain to imipenem [4]: 1.563 | Klebsiella pneumoniae MITC95 [5]: 6.25 µM | Escherichia coli MITC95 [6]: 3.125 µM | Serratia marcescens MITC95 [7]: 3.125 µM

NCCNS(=O)(=O)c1ccc(-c2cccc3[nH]c(C4CNC4)nc23)c(-c2nn[nH]n2)c1S(N)(=O)=O [Example 443, N1-(2-aminoethyl)-4-(2-(azetidin-3-yl)-1H-benzo[d]imidazol-4-yl)-3-(2H-tetrazol-5-yl)benzene-1,2-disulfonamide]
IC50 [1]: 0.0814 nM | IC50 [8]: 0.79 nM | Concentration of metallo-β-lactamase inhibitor which restores susceptibility of efflux + (MB9798) strain to imipenem [2]: 0.7813 | Concentration of metallo-β-lactamase inhibitor which restores susceptibility of efflux − (MB9799) strain to imipenem [4]: 0.7813 | Klebsiella pneumoniae MITC95 [5]: 1.172 µM | Escherichia coli MITC95 [6]: 0.7813 µM | Serratia marcescens MITC95 [7]: 1.563 µM

Nc1ccc(-c2ccc(S(=O)(=O)N[C@@H]3CCCNC3)c(S(N)(=O)=O)c2-c2nn[nH]n2)cn1 [Example 490, (R)-4-(6-aminopyridin-3-yl)-N1-(piperidin-3-yl)-3-(2H-tetrazol-5-yl)benzene-1,2-disulfonamide]
IC50 [1]: 0.0439 nM | IC50 [8]: 0.176 nM | Concentration of metallo-β-lactamase inhibitor which restores susceptibility of efflux + (MB9798) strain to imipenem [2]: 1.563 | Concentration of metallo-β-lactamase inhibitor which restores susceptibility of efflux − (MB9799) strain to imipenem [4]: 1.563 | Klebsiella pneumoniae MITC95 [5]: 3.125 µM | Escherichia coli MITC95 [6]: 0.7813 µM | Serratia marcescens MITC95 [7]: 1.563 µM

Nc1ccc(-c2ccc(S(=O)(=O)N[C@H]3CCCNC3)c(S(N)(=O)=O)c2-c2nn[nH]n2)cn1 [Example 494, (S)-4-(6-aminopyridin-3-yl)-N1-(piperidin-3-yl)-3-(2H-tetrazol-5-yl)benzene-1,2-disulfonamide]
IC50 [1]: 0.276 nM | IC50 [8]: 0.808 nM | Concentration of metallo-β-lactamase inhibitor which restores susceptibility of efflux + (MB9798) strain to imipenem [2]: 3.125 | Concentration of metallo-β-lactamase inhibitor which restores susceptibility of efflux − (MB9799) strain to imipenem [4]: 1.563 | Klebsiella pneumoniae MITC95 [5]: 3.125 µM | Escherichia coli MITC95 [6]: 0.7813 µM | Serratia marcescens MITC95 [7]: 1.563 µM
